Laboratory results as given in PubChem BioAssay (NCI).
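48-hour exposure; five concentrations; linearly interpolated endpoints. GI50 is the concentration that inhibits growth by half. TGI marks complete inhibition of growth.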

What was measured:
Experiment in all cases: NCI-60 cell line screen, 48 h
HCT-15 colon = test system: HCT-15 colon
HCT-116 colon = test system: HCT-116 colon
OVCAR-8 ovarian = test system: OVCAR-8 ovarian
LOX IMVI melanoma = test system: LOX IMVI melanoma
HS 578T breast = test system: HS 578T breast
DU-145 prostate = test system: DU-145 prostate
IGROV1 ovarian = test system: IGROV1 ovarian
HOP-62 NSCLC = test system: HOP-62 NSCLC
HOP-92 NSCLC = test system: HOP-92 NSCLC
MCF7 breast = test system: MCF7 breast
KM12 colon = test system: KM12 colon
T-47D breast = test system: T-47D breast
SF-268 CNS = test system: SF-268 CNS
RPMI-8226 leukemia = test system: RPMI-8226 leukemia
NCI-H226 lung = test system: NCI-H226 lung
BT-549 breast = test system: BT-549 breast
HL-60(TB) leukemia = test system: HL-60(TB) leukemia
CCRF-CEM leukemia = test system: CCRF-CEM leukemia
SK-OV-3 ovarian = test system: SK-OV-3 ovarian
SNB-19 CNS = test system: SNB-19 CNS
CAKI-1 renal = test system: CAKI-1 renal
COLO 205 colon = test system: COLO 205 colon
MOLT-4 leukemia = test system: MOLT-4 leukemia
NCI-H522 lung = test system: NCI-H522 lung
SK-MEL-5 melanoma = test system: SK-MEL-5 melanoma
HT29 colon = test system: HT29 colon
RXF 393 renal = test system: RXF 393 renal
HCC-2998 colon = test system: HCC-2998 colon
786-0 renal = test system: 786-0 renal
TK-10 renal = test system: TK-10 renal
OVCAR-3 ovarian = test system: OVCAR-3 ovarian
NCI/ADR-RES ovarian = test system: NCI/ADR-RES ovarian
SW-620 colon = test system: SW-620 colon
SK-MEL-28 melanoma = test system: SK-MEL-28 melanoma
M14 melanoma = test system: M14 melanoma
MALME-3M melanoma = test system: MALME-3M melanoma
MDA-MB-231 breast = test system: MDA-MB-231 breast
SN12C renal = test system: SN12C renal
SF-295 CNS = test system: SF-295 CNS
NCI-H23 lung = test system: NCI-H23 lung
K-562 leukemia = test system: K-562 leukemia
MDA-MB-435 = test system: MDA-MB-435
A498 renal = test system: A498 renal
ACHN renal = test system: ACHN renal
SNB-75 CNS = test system: SNB-75 CNS
NCI-H460 lung = test system: NCI-H460 lung
UACC-62 melanoma = test system: UACC-62 melanoma
EKVX NSCLC = test system: EKVX NSCLC
OVCAR-5 ovarian = test system: OVCAR-5 ovarian
SR leukemia = test system: SR leukemia
PC-3 prostate = test system: PC-3 prostate
UO-31 renal = test system: UO-31 renal
A549 NSCLC = test system: A549 NSCLC
U251 CNS = test system: U251 CNS
SK-MEL-2 melanoma = test system: SK-MEL-2 melanoma
UACC-257 melanoma = test system: UACC-257 melanoma
SF-539 CNS = test system: SF-539 CNS
OVCAR-4 ovarian = test system: OVCAR-4 ovarian

Cc1ccc(/C(=C/C=C(/C#N)C(N)=O)Sc2ncnn2C)cc1
GI50 (HCT-15 colon): 4.96 µM | TGI (HCT-15 colon): 19.9 µM | GI50 (HCT-116 colon): 4.57 µM | TGI (HCT-116 colon): 15.3 µM | GI50 (OVCAR-8 ovarian): 15.8 µM | TGI (OVCAR-8 ovarian): 43.8 µM | GI50 (LOX IMVI melanoma): 0.227 µM | TGI (LOX IMVI melanoma): 1.4 µM | GI50 (HS 578T breast): 20.1 µM | TGI (HS 578T breast): 50.1 µM | GI50 (DU-145 prostate): 6.61 µM | TGI (DU-145 prostate): 18.2 µM | GI50 (IGROV1 ovarian): 18 µM | TGI (IGROV1 ovarian): > 55.1 µM | GI50 (HOP-62 NSCLC): 13.1 µM | TGI (HOP-62 NSCLC): 27.7 µM | GI50 (HOP-92 NSCLC): 14.1 µM | TGI (HOP-92 NSCLC): 30.5 µM | GI50 (MCF7 breast): 3.49 µM | TGI (MCF7 breast): > 55.3 µM | GI50 (KM12 colon): 19.9 µM | TGI (KM12 colon): 44.3 µM | GI50 (T-47D breast): 18.7 µM | TGI (T-47D breast): 40.1 µM | GI50 (SF-268 CNS): 6.84 µM | TGI (SF-268 CNS): 25.6 µM | GI50 (RPMI-8226 leukemia): 2.4 µM | TGI (RPMI-8226 leukemia): > 22.9 µM | GI50 (NCI-H226 lung): 7.5 µM | TGI (NCI-H226 lung): 25.9 µM | GI50 (BT-549 breast): 1.84 µM | TGI (BT-549 breast): 9.57 µM | GI50 (HL-60(TB) leukemia): 12.3 µM | TGI (HL-60(TB) leukemia): 83 µM | GI50 (CCRF-CEM leukemia): 0.941 µM | TGI (CCRF-CEM leukemia): > 70.8 µM | GI50 (SK-OV-3 ovarian): 23.1 µM | TGI (SK-OV-3 ovarian): > 62.3 µM | GI50 (SNB-19 CNS): 22 µM | TGI (SNB-19 CNS): 50.2 µM | GI50 (CAKI-1 renal): 2.73 µM | TGI (CAKI-1 renal): 19.6 µM | GI50 (COLO 205 colon): 15.4 µM | TGI (COLO 205 colon): 35.2 µM | GI50 (MOLT-4 leukemia): 10.1 µM | TGI (MOLT-4 leukemia): > 100 µM | GI50 (NCI-H522 lung): 2.6 µM | TGI (NCI-H522 lung): > 52.5 µM | GI50 (SK-MEL-5 melanoma): 6.6 µM | TGI (SK-MEL-5 melanoma): 15.1 µM | GI50 (HT29 colon): 13.3 µM | TGI (HT29 colon): 48.6 µM | GI50 (RXF 393 renal): 6.86 µM | TGI (RXF 393 renal): 25 µM | GI50 (HCC-2998 colon): 13 µM | TGI (HCC-2998 colon): 26.4 µM | GI50 (786-0 renal): 4.35 µM | TGI (786-0 renal): 10.9 µM | GI50 (TK-10 renal): 14.2 µM | TGI (TK-10 renal): 29.1 µM | GI50 (OVCAR-3 ovarian): 5.95 µM | TGI (OVCAR-3 ovarian): 18.1 µM | GI50 (NCI/ADR-RES ovarian): 7.25 µM | TGI (NCI/ADR-RES ovarian): > 69.6 µM | GI50 (SW-620 colon): 3.87 µM | TGI (SW-620 colon): 15.6 µM | GI50 (SK-MEL-28 melanoma): 14.9 µM | TGI (SK-MEL-28 melanoma): 35.7 µM | GI50 (M14 melanoma): 6.4 µM | TGI (M14 melanoma): 19.9 µM | GI50 (MALME-3M melanoma): 2.03 µM | TGI (MALME-3M melanoma): 14.7 µM | GI50 (MDA-MB-231 breast): 9.57 µM | TGI (MDA-MB-231 breast): 22.9 µM | GI50 (SN12C renal): 7.89 µM | TGI (SN12C renal): 23.4 µM | GI50 (SF-295 CNS): 16.4 µM | TGI (SF-295 CNS): 41.5 µM | GI50 (NCI-H23 lung): 4.16 µM | TGI (NCI-H23 lung): 15.8 µM | GI50 (K-562 leukemia): 5.48 µM | TGI (K-562 leukemia): > 100 µM | GI50 (MDA-MB-435): 3.2 µM | TGI (MDA-MB-435): 24.7 µM | TGI (A498 renal): 3.4 µM | GI50 (ACHN renal): 2.94 µM | TGI (ACHN renal): 14.2 µM | GI50 (SNB-75 CNS): 15.6 µM | TGI (SNB-75 CNS): 30.8 µM | GI50 (NCI-H460 lung): 4.66 µM | TGI (NCI-H460 lung): 48.2 µM | GI50 (UACC-62 melanoma): 11 µM | TGI (UACC-62 melanoma): 24.6 µM | GI50 (EKVX NSCLC): 1.13 µM | TGI (EKVX NSCLC): 14.6 µM | GI50 (OVCAR-5 ovarian): 8.89 µM | TGI (OVCAR-5 ovarian): 23.5 µM | GI50 (SR leukemia): 2.51 µM | TGI (SR leukemia): > 35.2 µM | GI50 (PC-3 prostate): 11.4 µM | TGI (PC-3 prostate): 25.5 µM | GI50 (UO-31 renal): 5.53 µM | TGI (UO-31 renal): > 65.4 µM | GI50 (A549 NSCLC): 21.6 µM | TGI (A549 NSCLC): 54.4 µM | GI50 (U251 CNS): 3.47 µM | TGI (U251 CNS): 19.1 µM | GI50 (SK-MEL-2 melanoma): > 37.6 µM | TGI (SK-MEL-2 melanoma): > 55.7 µM | GI50 (UACC-257 melanoma): 17.6 µM | TGI (UACC-257 melanoma): 33.6 µM | GI50 (SF-539 CNS): 6.19 µM | TGI (SF-539 CNS): 20.4 µM | GI50 (OVCAR-4 ovarian): 24.4 µM | TGI (OVCAR-4 ovarian): > 72.5 µM
